Data as given in the supplement of paper PMC10307832.

Columns and labels:
GSK-J4 + Trametinib = compound: CCOC(=O)CCNc1cc(N2CCc3ccccc3CC2)nc(-c2ccccn2)n1 [GSK-J4] + CC(=O)Nc1cccc(-n2c(=O)n(C3CC3)c(=O)c3c(Nc4ccc(I)cc4F)n(C)c(=O)c(C)c32)c1 [Trametinib] (partner 0.02 µM); test: relative viability (nuclei count vs DMSO), 5 days (fraction); higher = more cells survive
In short: (§1)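 A single step with final 0.05% Triton X-100, 1% formaldehyde and 1 ug/ml Hoechst fixed the cells and stained nuclei 5 days after treatment. Lung cancer cell lines in 1536-well plates had been treated by pin tool the day after seeding with one drug alone or a fixed anchor-drug dose plus five library-drug doses (not always all listed) in √10 steps, and nuclei were counted on 4× images. Relative viability is the ratio of nuclei in treated wells to nuclei in vehicle wells, taken as the median of duplicate plates.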

AZ3146 + Dasatinib = compound: CN1CCC(CC1)OC2=CC(=C(C=C2)NC3=NC=C4C(=N3)N(C(=O)N4C)C5CCCC5)OC [AZ3146] + Cc1nc(Nc2ncc(C(=O)Nc3c(C)cccc3Cl)s2)cc(N2CCN(CCO)CC2)n1 [Dasatinib] (partner 0.075 µM); test: as above
In short: as §1

Cell Line | relative viability (GSK-J4 + Trametinib; first compound 0.5 µM) | relative viability (GSK-J4 + Trametinib; first compound 1.581 µM) | relative viability (GSK-J4 + Trametinib; first compound 5 µM) | relative viability (GSK-J4 + Trametinib; first compound 15.81 µM) | relative viability (GSK-J4 + Trametinib; first compound 50 µM) | relative viability (AZ3146 + Dasatinib; first compound 0.08 µM) | relative viability (AZ3146 + Dasatinib; first compound 0.253 µM) | relative viability (AZ3146 + Dasatinib; first compound 0.8 µM) | relative viability (AZ3146 + Dasatinib; first compound 2.53 µM) | relative viability (AZ3146 + Dasatinib; first compound 8 µM)
HCC-827 | 0.566 | 0.58 | 0.72 | 0.448 | 0.513 | 0.381 | 0.345 | 0.409 | 0.333 | 0.218
NCI-H1623 | – | – | – | – | – | 0.482 | 0.455 | 0.498 | 0.601 | 0.556
NCI-H3122 | 0.223 | 0.266 | 0.222 | 0.273 | 0.193 | 0.878 | 0.816 | 0.859 | 0.817 | 0.752
RERF-LC-KJ | 0.85 | 0.845 | 0.931 | 0.708 | 0.66 | 0.877 | 0.874 | 0.779 | 0.837 | 0.504
HCC-15 | 0.376 | 0.377 | 0.413 | 0.298 | 0.272 | 0.727 | 0.64 | 0.597 | 0.557 | 0.491
NCI-H1666 | 0.843 | 0.695 | 0.923 | 0.704 | 0.77 | 0.799 | 0.818 | 0.74 | 0.764 | 0.596
NCI-H1395 | 1.04 | 0.919 | 1.02 | 0.806 | 0.854 | 0.415 | 0.381 | 0.327 | 0.42 | 0.398
SK-LU-1 | 0.468 | 0.499 | 0.385 | 0.43 | 0.383 | 0.197 | 0.177 | 0.162 | 0.182 | 0.137
NCI-H1563 | – | – | – | – | – | 0.482 | 0.48 | 0.441 | 0.422 | 0.448
HOP-62 | 0.39 | 0.309 | 0.334 | 0.337 | 0.301 | 0.603 | 0.618 | 0.609 | 0.646 | 0.656
NCI-H1651 | 0.761 | 0.785 | 0.898 | 0.79 | 0.772 | 0.335 | 0.387 | 0.422 | 0.35 | 0.251
HCC-366 | 0.354 | 0.319 | – | 0.234 | 0.21 | 0.483 | 0.57 | 0.56 | 0.588 | 0.572
EMC-BAC-2 | 0.901 | 0.819 | – | 0.777 | 0.831 | 0.273 | 0.366 | 0.38 | 0.372 | 0.354
NCI-H2228 | 0.523 | 0.526 | 0.48 | 0.415 | 0.334 | 0.466 | 0.562 | 0.579 | 0.511 | 0.483
LK-2 | 0.655 | 0.727 | 1.27 | 0.664 | 1.04 | 0.376 | 0.218 | 0.279 | 0.25 | 0.322
NCI-H1650 | 0.678 | 0.56 | 0.608 | 0.646 | 0.419 | 0.318 | 0.315 | 0.37 | 0.265 | 0.225
ABC-1 | – | – | – | – | – | 0.493 | 0.56 | 0.562 | 0.713 | 0.421
SW 900 | 0.548 | 0.691 | 0.877 | 0.785 | 0.83 | 0.479 | 0.456 | 0.503 | 0.666 | 0.337
